Source: the NIST ThermoML archive (doi:10.1021/je700647x)

Key:
[1] = Ring tensiometer
[2] = xn = mol fraction of the nth substance listed; settings: Ring tensiometer

CN(CCO)CCO [N-methyldiethanolamine]
[1]
Settings | surface tension liquid-gas [mN/m]
288.15 K | 39.99
293.15 K | 39.26
298.15 K | 38.92
303.15 K | 38.08
308.15 K | 37.63
313.15 K | 37.25

CN(CCO)CCO [N-methyldiethanolamine] + CCO
surface tension liquid-gas [mN/m], [2]
Settings | 288.15 K | 293.15 K | 298.15 K | 303.15 K | 308.15 K | 313.15 K
x1 = 0.0253 | 23.45 | 23.11 | 22.79 | 22.49 | 22.16 | 21.92
x1 = 0.0321 | 23.58 | 23.24 | 22.92 | 22.63 | 22.27 | 22.04
x1 = 0.1033 | 24.92 | 24.59 | 24.32 | 24.06 | 23.77 | 23.58
x1 = 0.1629 | 26.03 | 25.7 | 25.45 | 25.26 | 24.94 | 24.81
x1 = 0.1705 | 26.18 | 25.83 | 25.59 | 25.38 | 25.08 | 24.98
x1 = 0.2474 | 27.58 | 27.24 | 27.02 | 26.79 | 26.53 | 26.44
x1 = 0.3713 | 29.85 | 29.47 | 29.28 | 28.95 | 28.75 | 28.63
x1 = 0.4806 | 31.8 | 31.4 | 31.18 | 30.84 | 30.62 | 30.49
x1 = 0.5506 | 33.02 | 32.6 | 32.39 | 32.01 | 31.78 | 31.66
x1 = 0.7035 | 35.58 | 35.06 | 34.92 | 34.48 | 34.24 | 34.07
x1 = 0.7452 | 36.25 | 35.71 | 35.58 | 35.08 | 34.84 | 34.66
x1 = 0.8227 | 37.51 | 36.91 | 36.71 | 36.09 | 35.8 | 35.57
x1 = 0.9368 | 39.11 | 38.42 | 38.1 | 37.39 | 37 | 36.73
x1 = 1 | 39.99 | 39.26 | 38.92 | 38.08 | 37.63 | 37.25
